From the pKa sets of Baltruschat and Czodrowski (2020)

Conditions: basic group

Compound	pKa
NCCCCCc1ccccc1	10.5
CN(C)c1ccccc1C(=O)[O-]	8.46
CC1(C)OC(=O)C[C@H]2[C@@H](C(=O)[O-])NC[C@H]21	9
Nc1ccc(I)cc1	3.79
O=C1[C@H]2C[C@H](CN3CCCC=C23)[C@@H]2CCCCN12	9.7
COc1ccc2nc3c(c(N4CCOCC4)c2c1)CCC3	7.14
N#CC(C#N)=NNc1ccccc1	-0.82
C[NH+](C)CCNCC[NH+](C)C	3.84
CN[C@@H]1C[C@@H]1[NH2+]C	3.56
CCNc1ncnc2[nH]ncc12	4.6
CCCCCCCCNCCC(=O)[O-]	10.6
N/C(=N\O)C(N)Cc1ccccc1 (stereo not drawn)	7.06
CCN1CC1	7.91
N#CC(CCN1CCOCC1)(c1ccccc1)c1ccccc1	6.09
CCOc1ccc(N)cc1	5.25
Nc1cc(/C=C/c2ccccc2)nc2ccccc12	9.3
O/N=C/c1ccccc1O	1.37
Oc1ccc2cnncc2c1	3.94
[NH3+]NC(=O)c1ccncc1	1.85
CC(CN1CCCC(C)(C)C1)Nc1ccccn1 (stereo not drawn)	9.23
Nc1ccc(/N=N/c2ccccc2)cc1	2.82
CNCc1ccccc1	9.64

Compound	pKa
Cc1cc([S-])nc([S-])n1	12
C1CC2CCCN2C1	11.7
Nc1cncn1[C@H]1O[C@@H](CO)[C@H](O)[C@@H]1O	6.05
COc1c(Br)cccc1C(=O)N[C@@H]1C[C@H]2CC[C@@H](C1)N2Cc1ccccc1	8.73
CCOCCN(C)c1ccccc1	4.8
COc1ccc2c(c1O)CN(C)CCc1cc3c(cc1C(=O)C2)OCO3	9
C/C=C1/CN2[C@@H]3C[C@H]1C1[C@@H](O)[C@]4(C[C@@H]12)c1ccccc1N(C)[C@@H]34 (stereo partly drawn)	8.5
C1CN(CC[NH+]2CCOCC2)CCO1	3.63
COc1nc(N)c2ncn([C@H]3O[C@@H](CO)[C@H](O)[C@@H]3O)c2n1	3.2
O[C@H]1[C@H](O)[C@@H](n2cnc3ccccc32)OC[C@@H]1O	3.92
Nc1n[nH]c(N)c1/N=N/c1ccccc1	3.43
NC(Cc1ccncc1)C(=O)[O-] (stereo not drawn)	9.22
O=[N+]([O-])c1ccc2[nH]c(CO)nc2c1	2.21
CN(C)c1nc2c(o1)CCCC2	6.16
CCC1CN1CC (stereo not drawn)	8.19
CC(=O)N(N=C(C)C)C1CCN(C)CC1	8.6
Cn1c(-c2ccccn2)[nH+]c2ccccc21	-1.27
CN(C)N	7.16
Cc1ccccc1C(=NCCCN(C)C)c1ccccc1C	8.7
C1CCCNCCC1	10.8
N#Cc1ccc(N)cc1	1.74
CNCCNCCN	10.2

Compound	pKa
OCCN1CCNCC1	9.33
Nc1cccc2cn[nH]c12	3.05
CN(C)c1ccc([N+](=O)[O-])cc1	0.69
Cc1noc(C)c1C	-1
O=S(=O)(Nc1ncccn1)c1ccccc1	0.15
CN(C)c1ccc(NC(=O)/C=N/O)cc1	4.94
CCN(CC)CCOC(=O)c1ccc2ccccc2c1	7.52
C[N-]C(=O)Oc1ccc2c(c1)[C@@]1(C)CCN(C)[C@H]1N2C	12.2
COC(=O)C1=CCCNC1	8.7
Cc1ccccc1/N=C/N(C)C	8.27
Cc1ccccc1C(=NCCCC[NH+](C)C)c1ccccc1C	5.18
Cn1ccc2ccccc2c1=O	-1.8
CCN(CC)c1ncnc2[nH]ncc12	4.71
CCC(C)(CC)Nc1ccccc1	6.32
COc1cnccn1	0.75
NC(=O)/C=C(\O)c1ccncc1	7.36
CCN(CC)c1ccccc1	6.6
c1ccc(Oc2ccnc3c2ccc2c(Oc4ccccc4)ccnc23)cc1	5.34
CCC(C)N(C)C (stereo not drawn)	10.4
CCOC(=O)CC(NC)c1ccccc1 (stereo not drawn)	8.23
CCN1CCCCC1	10.7
[O-]c1ccc(F)cc1CN1CCCCC1	11.3

Compound	pKa
NC(=O)c1cc(-c2ccccc2)nnc1NCC[NH+]1CCOCC1	2.5
Nc1cncnc1	2.83
N[C@H]1CCCC[C@H]1C(=O)Oc1ccc([N+](=O)[O-])cc1	8.42
Nc1ccc(-c2cnc(-c3ccc(Br)cc3)o2)cc1	3.51
CC(C)(C)CNc1ccccc1	4.17
[O-]c1nc([O-])c2[nH]nnc2[nH+]1	4.2
COc1cccc(CN2CC(O[Si](C)(C)C)C2)c1	7.81
Cc1cnncc1C	4.13
CCCCN(C)C	10
COc1ccc(N)cn1	4.24
O=[N+]([O-])c1[nH]cnc1Cl	-1.3
CCOc1ccc(Nc2ccccc2)cc1	1.41
CCCCCCCCCCCCCN	10.6
COc1ccc(C(=O)S)cc1	-4.9
CC(C)(C)C(=O)n1cnc2ccccc21	2
Cc1cccnc1C	6.57
CCc1ccc(/N=N/c2ccc(N(C)C)cc2)cc1C	2.6
[O-]c1ccc(O)c2ccccc12	11
CCCCNCC/C(N)=N/O	9.6
Oc1c(Cl)cc(Cl)c2cccnc12	2.89
O=C(Nc1ccncc1)c1ccccc1	5.32
CCN1[C@@H](C)[C@@H]1C (stereo partly drawn)	9.41
